System: primary HSCs
[1] = mRNA-Seq expression, primary HSCs, day 6 with JQ1

In the case of Cc1sc2c(c1C)C(c1ccc(Cl)cc1)=N[C@@H](CC(=O)OC(C)(C)C)c1nnc(C)n1-2 [JQ1, (S)-tert-butyl 2-(4-(4-chlorophenyl)-2,3,9-trimethyl-6H-thieno[3,2-f][1,2,4]triazolo[4,3-a][1,4]diazepin-6-yl)acetate], the “Elfn1 value_2 (Day_6_JQ1)” value [1] was 0.4141, the “Eln value_2 (Day_6_JQ1)” value [1] was 0.6077 and the “Esrp2 value_2 (Day_6_JQ1)” value [1] was 0.7459. For the same molecule, the “Etv4 value_2 (Day_6_JQ1)” value [1] was 1.116, the “F3 value_2 (Day_6_JQ1)” value [1] was 32.9312 and the “Fam132b value_2 (Day_6_JQ1)” value [1] was 0.6136. The “Fam198b value_2 (Day_6_JQ1)” value [1] was 1.907, the “Fblim1 value_2 (Day_6_JQ1)” value [1] was 12.2302 and the “Fibin value_2 (Day_6_JQ1)” value [1] was 1.847. The “Fkbp10 value_2 (Day_6_JQ1)” value [1] was 27.4534, the “Fkbp11 value_2 (Day_6_JQ1)” value [1] was 6.955 and the “Fst value_2 (Day_6_JQ1)” value [1] was 3.079. For the same molecule, the “Fxyd6 value_2 (Day_6_JQ1)” value [1] was 0.9921, the “Gbx2 value_2 (Day_6_JQ1)” value [1] was 0.4331 and the “Gjb3 value_2 (Day_6_JQ1)” value [1] was 0.08229. For the same molecule, the “Gjb5 value_2 (Day_6_JQ1)” value [1] was 0.1388, the “Gm12824 value_2 (Day_6_JQ1)” value [1] was 0.8107 and the “Gpr176 value_2 (Day_6_JQ1)” value [1] was 5.413. The “Has2 value_2 (Day_6_JQ1)” value [1] was 1.812, the “Hebp2 value_2 (Day_6_JQ1)” value [1] was 0.7684 and the “Hhipl1 value_2 (Day_6_JQ1)” value [1] was 0.517. For the same molecule, the “Hsd11b1 value_2 (Day_6_JQ1)” value [1] was 3.839, the “Hspb2 value_2 (Day_6_JQ1)” value [1] was 6.826 and the “Hspb7 value_2 (Day_6_JQ1)” value [1] was 0.2986. The “Htra3 value_2 (Day_6_JQ1)” value [1] was 1.896, the “Ivl value_2 (Day_6_JQ1)” value [1] was 0.5056 and the “Jph2 value_2 (Day_6_JQ1)” value [1] was 3.451. The “Kcnmb1 value_2 (Day_6_JQ1)” value [1] was 0.01726, the “Kctd15 value_2 (Day_6_JQ1)” value [1] was 1.124 and the “Lmod1 value_2 (Day_6_JQ1)” value [1] was 5.533. For the same molecule, the “Lox14 value_2 (Day_6_JQ1)” value [1] was 6.181, the “Lox value_2 (Day_6_JQ1)” value [1] was 102.497 and the “Ltbp1 value_2 (Day_6_JQ1)” value [1] was 3.833. For the same molecule, the “Ltbp2 value_2 (Day_6_JQ1)” value [1] was 4.7344, the “Mfap4 value_2 (Day_6_JQ1)” value [1] was 0.2994 and the “Mfap5 value_2 (Day_6_JQ1)” value [1] was 1.011. The “Mgp value_2 (Day_6_JQ1)” value [1] was 22.5571, the “Mmp23 value_2 (Day_6_JQ1)” value [1] was 6.014 and the “Mrap value_2 (Day_6_JQ1)” value [1] was 0.2549. The “Mrgprf value_2 (Day_6_JQ1)” value [1] was 1.3677, the “Myl9 value_2 (Day_6_JQ1)” value [1] was 142.669 and the “Naalad2 value_2 (Day_6_JQ1)” value [1] was 0.9739. The “Nfatc4 value_2 (Day_6_JQ1)” value [1] was 2.235, the “Npr3 value_2 (Day_6_JQ1)” value [1] was 8.408 and the “Olfm2 value_2 (Day_6_JQ1)” value [1] was 0.8372. For the same molecule, the “P2ry14 value_2 (Day_6_JQ1)” value [1] was 6.946, the “P4ha3 value_2 (Day_6_JQ1)” value [1] was 1.335 and the “Pappa value_2 (Day_6_JQ1)” value [1] was 0.6606. For the same molecule, the “Pdgfc value_2 (Day_6_JQ1)” value [1] was 1.527, the “Pdgfrl value_2 (Day_6_JQ1)” value [1] was 0.4741 and the “Pdlim3 value_2 (Day_6_JQ1)” value [1] was 0.5953. The “Pla1a value_2 (Day_6_JQ1)” value [1] was 2.047, the “Postn value_2 (Day_6_JQ1)” value [1] was 58.0905 and the “Prelid2 value_2 (Day_6_JQ1)” value [1] was 1.71. The “Prkar1b value_2 (Day_6_JQ1)” value [1] was 1.1011, the “Pstpip1 value_2 (Day_6_JQ1)” value [1] was 0.2607 and the “Ptgs2 value_2 (Day_6_JQ1)” value [1] was 2.221. The “Ptprn value_2 (Day_6_JQ1)” value [1] was 5.204, the “Rap1gap2 value_2 (Day_6_JQ1)” value [1] was 2.58 and the “Rasl12 value_2 (Day_6_JQ1)” value [1] was 0.3063. For the same molecule, the “Rgs4 value_2 (Day_6_JQ1)” value [1] was 2.345, the “Saa3 value_2 (Day_6_JQ1)” value [1] was 10.7546 and the “Serpinb9b value_2 (Day_6_JQ1)” value [1] was 4.136. For the same molecule, the “Serpinf1 value_2 (Day_6_JQ1)” value [1] was 66.5572, the “Sertad4 value_2 (Day_6_JQ1)” value [1] was 0.6904 and the “Slc16a3 value_2 (Day_6_JQ1)” value [1] was 10.7025. For the same molecule, the “Sorcs2 value_2 (Day_6_JQ1)” value [1] was 0.1588, the “Spon2 value_2 (Day_6_JQ1)” value [1] was 12.3682 and the “Srpx2 value_2 (Day_6_JQ1)” value [1] was 2.998. The “Stra6 value_2 (Day_6_JQ1)” value [1] was 0.07484, the “Syt13 value_2 (Day_6_JQ1)” value [1] was 6.257 and the “Tfpi2 value_2 (Day_6_JQ1)” value [1] was 4.486. For the same molecule, the “Thy1 value_2 (Day_6_JQ1)” value [1] was 2.222, the “Tll1 value_2 (Day_6_JQ1)” value [1] was 0.3916 and the “Tmeff1 value_2 (Day_6_JQ1)” value [1] was 5.181. The “Tmem200a value_2 (Day_6_JQ1)” value [1] was 0.3192, the “Tnfsf8 value_2 (Day_6_JQ1)” value [1] was 0.1581 and the “Tnfsf13b value_2 (Day_6_JQ1)” value [1] was 1.119. For the same molecule, the “Tnfsf15 value_2 (Day_6_JQ1)” value [1] was 0.07599, the “Tnfsf18 value_2 (Day_6_JQ1)” value [1] was 0.24 and the “Trpc6 value_2 (Day_6_JQ1)” value [1] was 0.05189. The “Wbscr17 value_2 (Day_6_JQ1)” value [1] was 0.7256, the “Wisp1 value_2 (Day_6_JQ1)” value [1] was 4.262 and the “Wisp2 value_2 (Day_6_JQ1)” value [1] was 1.369. For the same molecule, the “Wnt11 value_2 (Day_6_JQ1)” value [1] was 1.299, the “Zfp827 value_2 (Day_6_JQ1)” value [1] was 0.4625 and the “1110003E01Rik value_2” value (mRNA-Seq, sample Day_6_JQ1) was 69.1288. The “1600014C10Rik value_2” value (mRNA-Seq, sample Day_6_JQ1) was 21.437, the “2310022B05Rik value_2” value (mRNA-Seq, sample Day_6_JQ1) was 132.474 and the “Adam15 value_2” value (mRNA-Seq, sample Day_6_JQ1) was 78.5951. The “Afap1l2 value_2” value (mRNA-Seq, sample Day_6_JQ1) was 58.9193, the “Ahdc1 value_2” value (mRNA-Seq, sample Day_6_JQ1) was 13.24 and the “Apln value_2” value (mRNA-Seq, sample Day_6_JQ1) was 16.0329. The “Arhgap11a value_2” value (mRNA-Seq, sample Day_6_JQ1) was 12.9839, the “Arhgef17 value_2” value (mRNA-Seq, sample Day_6_JQ1) was 35.1441 and the “Aurkb value_2” value (mRNA-Seq, sample Day_6_JQ1) was 18.2306. The “BC018242 value_2” value (mRNA-Seq, sample Day_6_JQ1) was 17.3751, the “BC031353 value_2” value (mRNA-Seq, sample Day_6_JQ1) was 10.0028 and the “BC046404 value_2” value (mRNA-Seq, sample Day_6_JQ1) was 27.3155. The “Bambi value_2” value (mRNA-Seq, sample Day_6_JQ1) was 20.2742, the “Basp1 value_2” value (mRNA-Seq, sample Day_6_JQ1) was 173.108 and the “Bicc1 value_2” value (mRNA-Seq, sample Day_6_JQ1) was 86.5801. For the same molecule, the “Bphl value_2” value (mRNA-Seq, sample Day_6_JQ1) was 18.4476, the “C330027C09Rik value_2” value (mRNA-Seq, sample Day_6_JQ1) was 10.1673 and the “Cadm4 value_2” value (mRNA-Seq, sample Day_6_JQ1) was 23.19. For the same molecule, the “Cbx5 value_2” value (mRNA-Seq, sample Day_6_JQ1) was 28.9059.

Reference: patent US20180325914A1, “INCREASING STORAGE OF VITAMIN A, VITAMIN D AND/OR LIPIDS” (Salk Institute for Biological Studies, priority 2014, published 2018)
